Experimental data taken from PMC2851491 (The Journal of infectious diseases, 2010).
Read-outs that look alike come from different tables or passages of the source.

Assays:
[1] = system: Day 0 wild-type isolate (A/Bethesda/NIH12-0/2008); experiment: microbe, parasite or virus in culture; type: cell-based, influenza A/H3N2 virus
[2] = system: A/Wisconsin/67/2005 (H3N2); experiment: microbe, parasite or virus in culture; type: cell-based, influenza A/H3N2 virus
[3] = system: Day 8 isolate (deletion in NA of AA 245–248); type: cell-based, influenza A/H3N2 virus; conditions: read-out: High Throughput Assay EC50 (95% CI)
[4] = system: Day 8 isolate (deletion in NA of AA 245–248); type: cell-based, influenza A/H3N2 virus; conditions: for IC50: read-out: Plaque Reduction Assay IC50 (95% CI)
[5] = system: Day 0 wild-type isolate (A/Bethesda/NIH12-0/2008); type: cell-based, influenza A/H3N2 virus; conditions: read-out: Plaque Reduction Assay IC50 (95% CI)
[6] = molecular target: NA of Day 0 wild-type isolate (A/Bethesda/NIH12-0/2008) (Influenza A virus, UniProt D3XBZ2); type: biochemical, influenza A/H3N2 virus; conditions: read-out: NA-inhibition Assay IC50 (95% CI)
[7] = molecular target: NA of Day 8 isolate (deletion in NA of AA 245–248) (Influenza A virus, UniProt D3XBZ2, DEL245-248); experiment: biochemical; type: biochemical, influenza A/H3N2 virus
[8] = read-out: High Throughput Assay EC50 (95% CI)

NC12CC3CC(CC(C3)C1)C2 [Amantadine, amantadine] gave an EC50 ([1]; Influenza A virus, in Homo sapiens, 0 h, read-out: High Throughput Assay EC50) of over 200000 nM and an EC50 ([2]; Influenza A virus, H3N2, read-out: High Throughput Assay EC50) of over 200000 nM.

Work on CCOC(=O)C1=C[C@@H](OC(CC)CC)[C@H](NC(C)=O)[C@@H](N)C1 [Oseltamivir, oseltamivir] yielded an EC50 [3] of 443 nM, an IC50 [4] of 49.7 nM and an EC50 [1, 8] of 0.21 nM. It also gave an IC50 [5] of 0.38 nM and an EC50 [2, 8] of 0.37 nM.

CC(=O)N[C@H]1[C@H]([C@H](O)[C@H](O)CO)OC(C(=O)O)=C[C@@H]1N=C(N)N [Zanamivir, zanamivir] was tested, and the EC50 [3] was 131 nM, the IC50 [6] was 4 nM and the “fold increase in IC50, plaque reduction assay” value [4] was 14 fold. For the same molecule, the IC50 [4] was 224 nM, the IC50 [7] was 12.7 nM and the “fold increase in IC50, NA activity assay” value [7] was 3 fold. The “fold increase in IC50 / IC50/EC50, summary over drug sensitivity assays” value [7] was 3 to 7 fold, the EC50 [1, 8] was 18.9 nM and the IC50 [5] was 15.6 nM. The EC50 [2, 8] was 6.16 nM.
